Reference: US20120309823A1, “PERCUTANEOUS ABSORPTION PREPARATIONS” (priority 1999, published 2012)

- melting point: 118 to 120 °C
Structure (SMILES): CC(=O)NCC[C@@H]1CCc2ccc3c(c21)CCO3
